Data as given in patent US20250122155A1, “NOVEL INDOLE DERIVATIVE, PHARMACEUTICAL COMPOSITION COMPRISING SAME, AND USE THEREOF” (MITOIMMUNE THERAPEUTICS INC., priority 2021, published 2025).

Tests used:
Conditions in all cases: 24 hours
H9C2 cells = assay: Cell death protective effect in cardiac myocytes against Erastin, glutamate and RSL3 (LDH); type: cell-based, rat
Experimental: (§1) In order to identify the protective effect on cardiac cells, H9C2 cells were divided into 96-well plates by 1×10^4 and cultured for 18 to 24 hours. The compounds of Examples were diluted to final concentrations of 0.1 and 1 μM, treated in each well, and incubated for 15 to 20 minutes. Erastin, glutamate, and RSL3 were treated to have final concentrations of 1 μM, 25 mM, and 0.5 μM, respectively, and cultured for 24 hours. In order to identify the protective effect of each compound, the degree of LDH extracellular secretion was measured using cytotoxicity LDH assay kit [Dojindo; CK12]. Briefly, at the time when the treatment of the cells with Erastin, glutamate, and RSL3 for 24 hours is completed, the supernatants containing the cells are taken by 70 μL and transferred to a new 96-well plate. The assay buffer included in the kit is added in an amount of 70 μL/well (the same amount as the sample) thereto, and then the plate is wrapped with a foil and the reaction is performed at room temperature for 15 minutes.

NRK-49F cells = assay: Cell death protective effect in renal fibroblasts against Erastin, glutamate and RSL3 (LDH); type: cell-based, rat
Experimental: as §1, with “effect on renal fibroblasts, NRK-49F cells were” for “effect on cardiac cells, H9C2 cells were”, “concentrations of 3 μM, 75” for “concentrations of 1 μM, 25”, “3 μM, 75 mM, and” for “1 μM, 25 mM, and”, “mM, and 3 μM, respectively,” for “mM, and 0.5 μM, respectively,”, “by 70 μl and transferred” for “by 70 μL and transferred”

PC-12 cells = assay: Cell death protective effect in adrenal cells against Erastin, glutamate and RSL3 (LDH); type: cell-based, rat
Experimental: In order to identify the protective effect on adrenal cells, PC-12 cells were divided into 96-well plates by 1×10^4 and cultured for 18 to 24 hours. The compounds of Examples were diluted to final concentrations of 0.1 and 1.0 μM in Erastin, 0.01 and 0.1 in glutamate, and 0.3 and 3.0 μM in RSL3, treated in each well, and incubated for 15 to 20 minutes. Erastin, glutamate, and RSL3 were treated to have final concentrations of 1 μM, 10 mM, and 0.3 μM, respectively, and cultured for 24 hours. In order to identify the protective effect of each compound, the degree of LDH extracellular secretion was measured using cytotoxicity LDH assay kit [Dojindo; CK12]. Briefly, at the time when the treatment of the cells with Erastin, glutamate, and RSL3 for 24 hours is completed, the supernatants containing the cells are taken by 70 μL and transferred to a new 96-well plate. The assay buffer included in the kit is added in an amount of 70 μL/well (the same amount as the sample) thereto, and then the plate is wrapped with a foil and the reaction is performed at room temperature for 15 minutes. After observing the changed color of the sample, the stop solution was added in an amount of 35 µL/well thereto, and then the 0 inhibition value was calculated by measuring the absorbance value at a wavelength of 490 nm using an iD3 spectrophotometer.

NIH/3T3 cells = assay: Cell death protective effect in fibroblasts against Erastin, glutamate and RSL3 (LDH); type: cell-based, mouse
Experimental: In order to identify the protective effect on fibroblasts, NIH/3T3 cells were divided into 96-well plates by 8×10^3 and cultured for 18 to 24 hours. The compounds of Examples were diluted to final concentrations of 0.1 and 1 μM, treated in each well, and incubated for 15 to 20 minutes. Erastin, glutamate, and RSL3 were treated to have final concentrations of 3 μM, 30 mM, and 3 μM, respectively, and cultured for 24 hours. In order to identify the protective effect of each compound, the degree of LDH extracellular secretion was measured using cytotoxicity LDH assay kit [Dojindo; CK12]. Briefly, at the time when the treatment of the cells with Erastin, glutamate, and RSL3 for 24 hours is completed, the supernatants containing the cells are taken by 70 μL and transferred to a new 96-well plate. The assay buffer included in the kit is added in an amount of 70 μL/well (the same amount as the sample) thereto, and then the plate is wrapped with a foil and the reaction is performed at room temperature for 15 minutes. After observing the changed color of the sample, the stop solution was added in an amount of 35 μL/well thereto, and then the 00 inhibition value was calculated by measuring the absorbance value at a wavelength of 490 nm using an iD3 spectrophotometer.

[1] = H9C2, Erastin 1 μM, compound 0.1 μM
[2] = H9C2, Erastin 1 μM, compound 1.0 μM
[3] = H9C2, Glutamate 25 mM, compound 0.1 μM
[4] = H9C2, Glutamate 25 mM, compound 1.0 μM
[5] = H9C2, RSL3 0.5 μM, compound 0.1 μM
[6] = H9C2, RSL3 0.5 μM, compound 1.0 μM
[7] = Glutamate 75 mM, compound 0.1 μM
[8] = Glutamate 75 mM, compound 1.0 μM
[9] = PC-12, Erastin 1 μM, compound 0.1 μM
[10] = PC-12, Erastin 1 μM, compound 1.0 μM
[11] = PC-12, Glutamate 10 mM, compound 0.01 μM
[12] = PC-12, Glutamate 10 mM, compound 0.1 μM
[13] = PC-12, RSL3 0.3 μM, compound 0.3 μM
[14] = PC-12, RSL3 0.3 μM, compound 3.0 μM
[15] = NIH/3T3, Erastin 3 μM, compound 0.1 μM
[16] = NIH/3T3, Erastin 3 μM, compound 1.0 μM
[17] = NIH/3T3, Glutamate 30 mM, compound 0.1 μM
[18] = NIH/3T3, Glutamate 30 mM, compound 1.0 μM
[19] = NIH/3T3, RSL3 3 μM, compound 0.1 μM
[20] = NIH/3T3, RSL3 3 μM, compound 1.0 μM

**Q.** CCOCCOCc1cc(NC2CCCC2)c2[nH]c(-c3ccccc3)cc2c1 [Example 36, N-cyclopentyl-5-(2-ethoxyethoxymethyl)-2-phenyl-1H-indol-7-amine] was tested. Which “inhibition (%)” value (H9C2 cells; [1]) did it give?
**A.** 100%

**Q.** And the “inhibition (%)” value (H9C2 cells; [2])?
**A.** 100%

**Q.** What about the “inhibition (%)” value (H9C2 cells; [3]) of the same compound?
**A.** 99%

**Q.** And the “inhibition (%)” value (H9C2 cells; [4])?
**A.** 97%

**Q.** What about the “inhibition (%)” value (H9C2 cells; [5]) of the same compound?
**A.** 98%

**Q.** And the “inhibition (%)” value (H9C2 cells; [6])?
**A.** 99%

**Q.** What about the “inhibition (%)” value (NRK-49F cells; Erastin 3 μM, compound 0.1 μM) of the same compound?
**A.** 99%

**Q.** What about the “inhibition (%)” value (NRK-49F cells; Erastin 3 μM, compound 1.0 μM) of the same compound?
**A.** 99%

**Q.** And the “inhibition (%)” value (NRK-49F cells; [7])?
**A.** 100%

**Q.** What about the “inhibition (%)” value (NRK-49F cells; [8]) of the same compound?
**A.** 100%

**Q.** And the “inhibition (%)” value (NRK-49F cells; RSL3 3 μM, compound 0.1 μM)?
**A.** 98%

**Q.** And the “inhibition (%)” value (NRK-49F cells; RSL3 3 μM, compound 1.0 μM)?
**A.** 99%

**Q.** What about the “inhibition (%)” value (PC-12 cells; [9]) of the same compound?
**A.** 100%

**Q.** And the “inhibition (%)” value (PC-12 cells; [10])?
**A.** 100%

**Q.** And the “inhibition (%)” value (PC-12 cells; [11])?
**A.** 61%

**Q.** And the “inhibition (%)” value (PC-12 cells; [12])?
**A.** 95%

**Q.** And the “inhibition (%)” value (PC-12 cells; [13])?
**A.** 100%

**Q.** What about the “inhibition (%)” value (PC-12 cells; [14]) of the same compound?
**A.** 100%

**Q.** And the “inhibition (%)” value (NIH/3T3 cells; [15])?
**A.** 99%

**Q.** And the “inhibition (%)” value (NIH/3T3 cells; [16])?
**A.** 100%

**Q.** What about the “inhibition (%)” value (NIH/3T3 cells; [17]) of the same compound?
**A.** 100%

**Q.** And the “inhibition (%)” value (NIH/3T3 cells; [18])?
**A.** 100%

**Q.** And the “inhibition (%)” value (NIH/3T3 cells; [19])?
**A.** 100%

**Q.** And the “inhibition (%)” value (NIH/3T3 cells; [20])?
**A.** 100%

**Q.** Which results are given for COCCOCCOCc1cc(NC2CCCC2)c2[nH]c(-c3ccccc3)cc2c1 [Example 39, N-cyclopentyl-5-[2-(2-methoxyethoxy)ethoxymethyl]-2-phenyl-1H-indol-7-amine]?
**A.** inhibition (%) (H9C2 cells; [1]): 100%; inhibition (%) (H9C2 cells; [2]): 100%; inhibition (%) (H9C2 cells; [3]): 96%; inhibition (%) (H9C2 cells; [4]): 96%; inhibition (%) (H9C2 cells; [5]): 96%; inhibition (%) (H9C2 cells; [6]): 96%; inhibition (%) (NRK-49F cells; Erastin 3 μM, compound 0.1 μM): 99%; inhibition (%) (NRK-49F cells; Erastin 3 μM, compound 1.0 μM): 98%; inhibition (%) (NRK-49F cells; [7]): 100%; inhibition (%) (NRK-49F cells; [8]): 100%; inhibition (%) (NRK-49F cells; RSL3 3 μM, compound 0.1 μM): 98%; inhibition (%) (NRK-49F cells; RSL3 3 μM, compound 1.0 μM): 99%; inhibition (%) (PC-12 cells; [9]): 100%; inhibition (%) (PC-12 cells; [10]): 100%; inhibition (%) (PC-12 cells; [11]): 52%; inhibition (%) (PC-12 cells; [12]): 97%; inhibition (%) (PC-12 cells; [13]): 100%; inhibition (%) (PC-12 cells; [14]): 100%; inhibition (%) (NIH/3T3 cells; [15]): 99%; inhibition (%) (NIH/3T3 cells; [16]): 100%; inhibition (%) (NIH/3T3 cells; [17]): 99%; inhibition (%) (NIH/3T3 cells; [18]): 100%; inhibition (%) (NIH/3T3 cells; [19]): 100%; inhibition (%) (NIH/3T3 cells; [20]): 100%

**Q.** What does the source list for COCCOCc1cc(NCc2ccncc2)c2[nH]c(-c3ccccc3)cc2c1 [Example 45, 5-(2-methoxyethoxymethyl)-2-phenyl-N-(4-pyridylmethyl)-1H-indol-7-amine]?
**A.** inhibition (%) (H9C2 cells; [1]): 100%; inhibition (%) (H9C2 cells; [2]): 100%; inhibition (%) (H9C2 cells; [3]): 98%; inhibition (%) (H9C2 cells; [4]): 96%; inhibition (%) (H9C2 cells; [5]): 99%; inhibition (%) (H9C2 cells; [6]): 97%; inhibition (%) (NRK-49F cells; Erastin 3 μM, compound 0.1 μM): 99%; inhibition (%) (NRK-49F cells; Erastin 3 μM, compound 1.0 μM): 98%; inhibition (%) (NRK-49F cells; [7]): 100%; inhibition (%) (NRK-49F cells; [8]): 98%; inhibition (%) (NRK-49F cells; RSL3 3 μM, compound 0.1 μM): 99%; inhibition (%) (NRK-49F cells; RSL3 3 μM, compound 1.0 μM): 98%; inhibition (%) (PC-12 cells; [9]): 100%; inhibition (%) (PC-12 cells; [10]): 100%; inhibition (%) (PC-12 cells; [11]): 57%; inhibition (%) (PC-12 cells; [12]): 100%; inhibition (%) (PC-12 cells; [13]): 100%; inhibition (%) (PC-12 cells; [14]): 100%; inhibition (%) (NIH/3T3 cells; [15]): 100%; inhibition (%) (NIH/3T3 cells; [16]): 100%; inhibition (%) (NIH/3T3 cells; [17]): 0%; inhibition (%) (NIH/3T3 cells; [18]): 97%; inhibition (%) (NIH/3T3 cells; [19]): 0%; inhibition (%) (NIH/3T3 cells; [20]): 100%
